Like-named read-outs stand apart in the source and are kept apart here. Numbered stars: 1 amine (or outer) side, 2 acyl side, 3 side chain; on linkers, the order of the positions; unused ones are H or OH. Side chains are listed from the residue outwards. Peptide text beside a SMILES is read from it. * marks the point of attachment. C18 diacid = O=C(O)CCCCCCCCCCCCCCCCC(=O)*; γGlu = O=C(O)[C@H](CCC(=O)[*:2])N[*:1]; Fumaroyl = O=C(O)/C=C/C(=O)*; Suc = O=C(CCC(=O)[*:2])[*:1]; Lauroyl = CCCCCCCCCCCC(=O)*; AEEA = NCCOCCOCC(=O)O
Columns and labels:
[1] = test system: BDNF; assay: BDNF protein expression in infarcted brain tissue of tMCAO mice (ELISA); format: in vivo, C57/6J mice; settings: for BDNF: 3 times (D1, D3, D6), infarcted brain tissue after D14; for expression level of BDNF protein compared with the normal saline group: tMCAO mice
Description: Fifty-one male C57/6J mice, aged 10-12 weeks, weighing 25-30g, were housed for at least 2 days prior to the experiment to adapt to the environment (SPF Biotech). A mouse model of tMCAO was established. The mice were anesthetized with isoflurane. Their body temperature was controlled by a thermostatic blanket and monitored and maintained at 37±0.5°C. A middle incision was made in the skin on the mouse skull, the skin was pulled outward, and a bendable microneedle tip was fixed to the surface of the left parietal bone of the mouse skull. A middle incision on the neck was made to separate the right common carotid artery (CCA), external carotid artery (ECA) and internal carotid artery (ICA). According to the method of Longa (Longa et al., 1989), a silicone rubber-coated suture (RWD Life Science, suture end diameter: 0.22 mm-0.23 mm, MSMC23B120PK50) was introduced through an external carotid artery incision surgery and was slowly advanced through the internal carotid artery towards the origin of the middle cerebral artery. To ensure a sustained and successful occlusion of the middle cerebral artery, we monitored local cerebral blood flow of all stroke animals with a laser speckle flowmeter (generally, the blood flow can be reduced by 40-60% after stabilized). The suture was removed 45 min after the insertion for modeling, and the incision was sutured. Afterward, 1 mL of 37°C warm saline was injected subcutaneously, and the mice were placed on a heating pad until recovery. To alleviate pain, the mice were injected subcutaneously with Tilidine after awakening from anesthesia.
Successfully modeled C57 tMCAO mice were randomly assigned into three groups: a normal saline group, a 30µg/Kg BX229-Na administration group, and a 100µg/Kg BX229-Na administration group. Each group was administered once subcutaneously in the neck 4.5 hours after occlusion (D1), and was administered once more at the same sites and at the same time points on D3 and D6. A sham group included 6 animals. 2 mL/kg was administrated subcutaneously in the neck. Garcia JH scoring was made on D7 and D14 after administration. After the completion of the scoring on D14, the mice were euthanized and harvested for infarcted brain tissues, to extract total proteins. Changes in protein markers VEGF-A and BDNF in each experimental group were detected by ELISA. Table 19: Experimental Grouping and Dosing Regimen

[2] = test system: BDNF; assay: BDNF protein expression in infarcted brain tissue, mouse model of tMCAO (ELISA); format: in vivo, C57/6J mice
Description: Fifty-one male C57/6J mice, aged 10-12 weeks, weighing 25-30g, were housed for at least 2 days prior to the experiment to adapt to the environment (SPF Biotech). A mouse model of tMCAO was established. The mice were anesthetized with isoflurane. Their body temperature was controlled by a thermostatic blanket and monitored and maintained at 37±0.5°C. A middle incision was made in the skin on the mouse skull, the skin was pulled outward, and a bendable microneedle tip was fixed to the surface of the left parietal bone of the mouse skull. A middle incision on the neck was made to separate the right common carotid artery (CCA), external carotid artery (ECA) and internal carotid artery (ICA). […] To ensure a sustained and successful occlusion of the middle cerebral artery, we monitored local cerebral blood flow of all stroke animals with a laser speckle flowmeter (generally, the blood flow can be reduced by 40-60% after stabilized). […]
Successfully modeled C57 tMCAO mice were randomly assigned into three groups: a normal saline group, a 30µg/Kg BX229-Na administration group, and a 100µg/Kg BX229-Na administration group. […] Changes in protein markers VEGF-A and BDNF in each experimental group were detected by ELISA. […]

[3] = test system: rat model of pMACO; assay: Foot fault test in rat model of pMACO; format: in vivo, SD rats; settings: rat pMCAO; D7 after administration; comparison in words
[4] = test system: SD rats
Description: Male SD rats were anesthetized with isoflurane, and their neck hairs were shaved. A midline incision was made on the neck to expose the trachea. A ventilator and anesthesia machine for small animals were turned on, with concentration of an anesthetic gas set to 1.2, and its exit channel connected to an inlet of the ventilator. Tidal volume of the ventilator was set to 2 mL, the respiratory rate was 90 breaths/minute, and the respiratory ratio was 1:2. An outlet end of the ventilator was connected to a plastic hose, which was inserted into the rat's airway.
A machine and a software of a biological signal data acquisition and analysis system were turned on. One end of a data acquisition plate was connected to the plastic hose, and the other end was connected to a collector valve connected with a 1-mL syringe. The syringe was filled with heparinized saline, which was injected into the data acquisition plate to expel the air in the entire space until the heparinized saline flowed out from the other end of the plastic hose. The right common carotid arteries of the rats were isolated. A dead knot was made at the distal end and a slipknot at the proximal end of a right common carotid artery. A 1/2-sized incision was made in the artery between the knot with a microscissor, and the plastic hose with heparinized saline was inserted into the incision and fixed to prevent back-and-forth movement. The initial value of the blood pressure was set to zero with the zero-adjustment valve of the biological signal data acquisition and analysis system. The slipknot at the proximal end of the common carotid artery was untied, and real-time blood pressure data of the animal appeared on the software. […] The dosages of IRL1620, BX34, and BX229 were 5 µg/Kg, 42 µg/kg, and 6.6 µg/Kg, respectively.

[5] = test system: rat model of pMACO; assay: Rotarod test in rat model of pMACO; format: in vivo, SD rats; settings: IRL1620 5 µg/Kg, BX34 7 µg/Kg, BX48 5 µg/Kg, administered 3 times (2, 4, 6 hours after modeling), n=10
Text: Male SD rats weighing 280-300 g were used and acclimated for at least 3 days. Focal cerebral ischemia was induced by middle cerebral artery occlusion with a suture method under isoflurane anesthesia. The animals were placed in a secure supine position, and a midline incision was made to expose the right common carotid artery, external carotid artery, and internal carotid artery. A 4.0 monofilament nylon suture was advanced from the external carotid artery toward the internal carotid artery lumen until resistance was felt ( ~ 20 mm), indicating middle cerebral artery occlusion. The nylon filament was allowed to stay in place to create a permanent model of focal cerebral ischemia. Successfully modeled rats were randomly assigned to four groups: a solvent (normal saline) group (n=10), a 7 µg/Kg BX-34 group (n=10), a 5 µg/Kg BX-48 group (n=10), and a 5 µg/Kg IRL1620 group (n=10). Each group was administered once at 2 hours, 4 hours, and 6 hours, respectively, after modeling, for a total of three administrations. Grip strength was measured before administration and at 24 hours and on D3 and D7 after administration. A rotarod test and a foot fault test were performed before administration and at 24 hours and day 7 after administration. During the rotarod test, time and distance were recorded, and ratios of the measurement at 24 hours and the measurement at D7 to the pretest measurement were used as analysis indicators. The specific method for the foot fault test was as follows. The rats were placed on an elevated grid floor (29×29 cm, grid opening: 3 cm^2) for 2 minutes, and the number of foot faults (when a forelimb fell through the grid) and the total steps were recorded. % Foot fault = (the number of forelimb faults/the total number of forelimb steps) × 100.

[6] = in vivo; settings: male, SD, rat, in vivo, iv
How it was run: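 Male SD rats (200-230 g) given single tail-vein injections, descending doses from 480 µg/Kg to 30 µg/Kg. Toxic response, mortality and time of death recorded; acute toxicity level preliminarily set from doses without mortality.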

[7] = background statement; cited from earlier work
[8] = SD rats, tail vein, IRL620 5 µg/Kg, BX34 42 µg/Kg, BX229 6.6 µg/Kg
[9] = intravenous, IRL1620 5 µg/Kg, BX34 42 µg/Kg, BX229 6.6 µg/Kg

CCCCCCCCCCCC(=O)N[C@@H](CCC(=O)NCCOCCOCC(=O)NCCCC[C@H](NC(=O)[C@H](Cc1c[nH]cn1)NC(=O)[C@H](C)NC(=O)[C@H](Cc1ccccc1)NC(=O)[C@H](Cc1ccc(O)cc1)NC(=O)[C@@H](NC(=O)[C@H](C)NC(=O)[C@H](CCC(=O)O)NC(=O)[C@H](CCC(=O)O)NC(=O)[C@H](CC(=O)O)NC(=O)/C=C/C(=O)O)C(C)C)C(=O)N[C@@H](CC(=O)O)C(=O)N[C@H](C(=O)N[C@H](C(=O)N[C@@H](Cc1c[nH]c2ccccc12)C(=O)O)[C@@H](C)CC)C(C)C)C(=O)O [BX229-Na] (Fumaroyl-DEEAVYFAHK([AEEA-γGlu-Lauroyl])DVIW-OH)
BDNF ([1]; 30 µg/Kg subcutaneously): 1103 ± 582 pg/mL
BDNF ([1]; 100 µg/Kg subcutaneously): 1334 ± 665 pg/mL
expression level of BDNF protein compared with the normal saline group ([1]; 30µg/Kg three-dose group): higher
expression level of BDNF protein compared with the normal saline group ([1]; 100µg/Kg three-dose group): higher
expression level of BDNF protein compared with the normal saline group ([2]; 30µg/Kg three-dose group): higher than that in the normal saline group
expression level of BDNF protein compared with the normal saline group ([2]; 100µg/Kg three-dose group): higher than that in the normal saline group

CC[C@H](C)[C@H](NC(=O)[C@H](CC(=O)O)NC(=O)[C@H](CCCCNC(=O)COCCOCCNC(=O)COCCOCCNC(=O)CC[C@H](NC(=O)CCCCCCCCCCCCCCCCC(=O)O)C(=O)O)NC(=O)[C@H](Cc1c[nH]cn1)NC(=O)[C@H](C)NC(=O)[C@H](Cc1ccccc1)NC(=O)[C@H](Cc1ccc(O)cc1)NC(=O)[C@@H](NC(=O)[C@H](C)NC(=O)[C@H](CCC(=O)O)NC(=O)[C@H](CCC(=O)O)NC(=O)[C@H](CC(=O)O)NC(=O)/C=C/C(=O)O)C(C)C)C(=O)N[C@H](C(=O)N[C@@H](Cc1c[nH]c2ccccc12)C(=O)O)[C@@H](C)CC [BX-34] (Fumaroyl-DEEAVYFAHK([AEEA-AEEA-γGlu-C18 diacid])DIIW-OH)
percentages of foot faults [3]: lower than that of the saline group and the IRL1620 group
maximum extent of decrease in blood pressure, of the baseline blood pressure ([4]; rat, in vivo): 9.5%±1.7%
time to the lowest blood pressure ([4]; rat, in vivo): 20 to 35 min
Maximum percentage of blood pressure reduction relative to baseline blood pressure (n = 3) ([4]; rat, in vivo, iv): 9.5%±1.7%
Time from baseline blood pressure to the lowest blood pressure ([4]; rat, in vivo, iv): 20 to 35 min
Rotarod Test 7D/pretest (%) Distance, m ([5]; 7D relative to pretest): 49.60%±49.48%
Rotarod Test 7D/pretest (%) Time, s ([5]; 7D relative to pretest): 65.5%±29.94%
Rotarod Test 7D/pretest (%) Velocity ([5]; 7D relative to pretest): 62.27%±34.12%
Rotarod Test 24h/pretest (%) Distance, m ([5]; 24h relative to pretest): 28.25%±44.00%
Rotarod Test 24h/pretest (%) Time, s ([5]; 24h relative to pretest): 38.34%±38.08%
Rotarod Test 24h/pretest (%) Velocity ([5]; 24h relative to pretest): 39.09%±35.03%

CCCCCCCCCCCC(=O)N[C@@H](CCC(=O)NCCOCCOCC(=O)NCCCC[C@H](NC(=O)[C@H](Cc1c[nH]cn1)NC(=O)[C@H](C)NC(=O)[C@H](Cc1ccccc1)NC(=O)[C@H](Cc1ccc(O)cc1)NC(=O)[C@@H](NC(=O)[C@H](C)NC(=O)[C@H](CCC(=O)O)NC(=O)[C@H](CCC(=O)O)NC(=O)[C@H](CC(=O)O)NC(=O)/C=C/C(=O)O)C(C)C)C(=O)N[C@@H](CC(=O)O)C(=O)N[C@H](C(=O)N[C@H](C(=O)N[C@@H](Cc1c[nH]c2ccccc12)C(=O)O)[C@@H](C)CC)[C@@H](C)CC)C(=O)O [BX-225] (Fumaroyl-DEEAVYFAHK([AEEA-γGlu-Lauroyl])DIIW-OH)
MTD at 24 h [6]: 0.03 mg/kg

CC[C@H](C)[C@H](NC(=O)[C@H](CC(=O)O)NC(=O)[C@H](CC(C)C)NC(=O)[C@H](Cc1c[nH]cn1)NC(=O)[C@H](C)NC(=O)[C@H](Cc1ccccc1)NC(=O)[C@H](Cc1ccc(O)cc1)NC(=O)[C@@H](NC(=O)[C@H](C)NC(=O)[C@H](CCC(=O)O)NC(=O)[C@H](CCC(=O)O)NC(=O)[C@H](CC(=O)O)NC(=O)CCC(=O)O)C(C)C)C(=O)N[C@H](C(=O)N[C@@H](Cc1c[nH]c2ccccc12)C(=O)O)[C@@H](C)CC [IRL1620, reference compound] (Suc-DEEAVYFAHLDIIW-OH)
MTD at 24 h [6]: 0.03 mg/kg
maximum extent of decrease in blood pressure, of the baseline blood pressure [4, 8]: 16.1%±2.4%
time to the lowest blood pressure [4, 8]: ≤ 2 min
Maximum percentage of blood pressure reduction relative to baseline blood pressure (n = 3) [4, 9]: 16.1%±2.4%
Time from baseline blood pressure to the lowest blood pressure [4, 9]: Less than 2 mins
half-life [7]: less than 2 minutes

From patent EP4702986A1, “POLYPEPTIDE AND USE THEREOF” (Biocells (Beijing) Biotech Co., Ltd., priority 2023, dated 2024)
